{
  "source": "patent US20220257548A1",
  "about": "“ORAL COMBINATION DRUG FORMULATION COMPRISING A NON-STEROIDAL ANTI-INFLAMMATORY DRUG AND A COMPLEMENTARY LOW DOSE OF TRANEXAMIC ACID FOR THE TREATMENT OF MENSTRUAL PAIN ACCOMPANIED WITH EXCESSIVE MENSTRUAL BLOOD LOSS” (ARSTAT, INC, priority 2011, published 2022)",
  "origin": "cited, not measured here",
  "key": {"[1]": {"system": "menstrual blood loss (MBL) in women"}, "[2]": {"system": "menstrual blood loss (MBL) in women with menorrhagia", "conditions": "for mean percent change in MBL: Lysteda clinical study"}, "[3]": {"conditions": "6 g/day"}},
  "note": "Like-named read-outs stand apart in the source and are kept apart here.",
  "data": [
    {"smiles": "O=C(O)Cc1ccccc1Nc1c(Cl)cccc1Cl", "note": "[diclofenac sodium]", "values": [
      {"measurement": "reduction in MBL", "setting": "[1]; 50 mg four times daily on Day 1 and three times on the following four days of the menstrual period", "value": 24, "unit": "%"}
    ]},
    {"smiles": "CC(C)Cc1ccc(C(C)C(=O)O)cc1", "note": "(centres unmarked) [ibuprofen]", "values": [
      {"measurement": "reduction in MBL", "setting": "[1]; 200 mg administered three times daily", "value": 16, "unit": "%"},
      {"measurement": "reduction in MBL", "setting": "[1]; 400 mg administered four times daily", "value": 32, "unit": "%"}
    ]},
    {"smiles": "Cc1cccc(Nc2ccccc2C(=O)O)c1C", "note": "[mefenamic acid]", "values": [
      {"measurement": "reduction in MBL", "setting": "[1]; 500 mg three times daily during the menstrual period, women clinically diagnosed with menorrhagia (baseline MBL>80 mL)", "value": 30, "unit": "%"},
      {"measurement": "reduction in MBL", "setting": "[1]; 500 mg three times daily during the menstrual period, women with no clinical diagnosis of menorrhagia (baseline MBL<80 mL)", "value": 19, "unit": "%"}
    ]},
    {"smiles": "NC[C@H]1CC[C@H](C(=O)O)CC1", "note": "[tranexamic acid]", "values": [
      {"measurement": "limitations on social, leisure and physical activities", "setting": "[2]; 3900 mg/day regimen", "value": "significantly reduces"},
      {"measurement": "difference versus placebo in reduction of large stains, small and large clots and changes in serum ferritin levels", "setting": "[2]; Lysteda NDA medical review", "value": "no statistically significant differences"},
      {"measurement": "subjects returned to normal MBL after treatment (mean on-treatment MBL of less than 80 mL)", "setting": "[2]; Lysteda NDA medical review", "value": 44, "unit": "%"},
      {"measurement": "mean percent change in MBL", "setting": "[2]; oral tranexamic acid 1950 mg/day regimen", "value": "approximately 25%"},
      {"measurement": "mean percent change in MBL", "setting": "[2]; oral tranexamic acid 3900 mg/day dose", "value": 39, "unit": "%"},
      {"measurement": "risk of gastrointestinal adverse events", "setting": "[3]", "value": "increased"}
    ]}
  ]
}
